Structures are written as SMILES. Like-named read-outs stand apart in the source and are kept apart here.

Holding throughout (assay type): cell-based, human
In data set [1] the test system is AhR (CYP1B1 target gene expression) in iPSCs. Briefly: Quantitative RT-PCR of AhR target gene CYP1B1 in iPSCs. The method, then:
RNA was extracted using the RNeasy kit (Qiagen) according to the manufacturer's instructions and DNase treated using the DNA-free kit (Ambion AM1906). Reverse transcription into cDNA was performed using the High Capacity cDNA Reverse Transcription Kit (Applied Biosystems 4368814). Quantitative (real time) PCR amplification of cDNA was performed using Taqman probes for AHR (Hs00169233 ml), CYP1B1 (Hs002382916 sl), HBA (Hs00361191 gl), HBB (Hs00758889 sl), HBG (Hs01629437 sl), vWF (Hs00169795 ml), PF4 (Hs00427220 gl), NF-E2 (Hs00232351 ml) and CD62P (Hs00927900 ml) and run on the Applied Biosystems StepOne machine. […]
To characterize AhR expression and functionality in both undifferentiated iPSCs and directly differentiated MEPs, AhR protein levels were determined via Western blot in these populations. AhR receptor was robustly expressed in day 30 and day 60 MEPs (FIG. 4A). However, AhR protein was not detected by western blotting in iPSC populations, and we postulated that AhR was expressed at extremely low levels in iPSCs, i.e., below the level of detectability with the antibodies used for Western blots. To test this hypothesis, the ability of FICZ to induce a prototypic AhR-target gene, CYPIB1, in iPSCs or, as a positive control, MEPs was assessed by quantitative RT-PCR.

The test system of data set [2] is AhR (CYP1B1 target gene expression) in MEPs. Briefly: Quantitative RT-PCR of AhR target gene CYP1B1 in MEPs. As to the method:
(§1) 6-formylindolo[3,2-b]carbazole (FICZ), an AHR small molecule agonist, and CH223191, an AHR competitive inhibitor were used for these assays. CH223191 was added to mesoderm cultures at Day 6 at 5 μM (lx) and 2.504 (0.5×). 0.2 μM FICZ was added to cultures at Day 7 and media was added daily. DMSO was used as a vehicle control.
RNA was extracted using the RNeasy kit (Qiagen) according to the manufacturer's instructions and DNase treated using the DNA-free kit (Ambion AM1906). Reverse transcription into cDNA was performed using the High Capacity cDNA Reverse Transcription Kit (Applied Biosystems 4368814). Quantitative (real time) PCR amplification of cDNA was performed using Taqman probes for AHR (Hs00169233 ml), CYP1B1 (Hs002382916 sl), HBA (Hs00361191 gl), HBB (Hs00758889 sl), HBG (Hs01629437 sl), vWF (Hs00169795 ml), PF4 (Hs00427220 gl), NF-E2 (Hs00232351 ml) and CD62P (Hs00927900 ml) and run on the Applied Biosystems StepOne machine. Relative gene expression was normalized to B-actin (Hs99999903 ml).
To characterize AhR expression and functionality in both undifferentiated iPSCs and directly differentiated MEPs, AhR protein levels were determined via Western blot in these populations. […] To test this hypothesis, the ability of FICZ to induce a prototypic AhR-target gene, CYPIB1, in iPSCs or, as a positive control, MEPs was assessed by quantitative RT-PCR.

Data set [3] deals with iPSC-derived MEPs. Briefly: Immunophenotyping of MEP lineage specification (CD235, CD71, CD41 FACS). The settings on record: day 30 MEPs, basal cytokine conditions, versus vehicle. As to the method: (§2) Roughly 10^5 cells were collected, spun, and re-suspended in 0.5% BSA in PBS. Samples were incubated for 30 min at ambient temperature with human antibodies including CD41a-FITC (BD 555466), CD235-PE (BD 555570), CD71-FITC (BD 555536), washed and spun at 3300 rpm for 7 min, and re-suspended in 0.5% BSA in PBS with 1 ug/ml Propidium Iodide. Samples were run on a BD FACScalibur using Cellquest Pro software and analyzed via FloJo 8.7. For ploidy analysis, cells were treated with 1.5% NP-40 (Boston Bioproducts P-872) and 62.5 ug/ml Propidium Iodide in PBS immediately before FACScalibur interrogation. For murine bone marrow, samples were first incubated for 5 min at ambient temperature with murine conjugated antibody CD16/32 (BD 553142) before a 30 min incubation with c-Kit-PE (BD 553355), CD41a-FITC (BD 553848), Ter119-PE (BD 553673). For cell viability assays, 2-3×10 ^5 cells were collected, re-suspended in 8.8 ug/ml Hoecsht 33342 in PBS supplemented with 5% FBS. Samples were then incubated in the dark at 37° C. for 15 min, washed, and re-suspended in 1 ug/ml Propidium Iodide in 5% FBS. Samples were run on an LSR-II machine with FACSDiva software and analyzed via FloJo 8.7.
In our previous studies in which we noted exponential expansion of iPSC-derived MEPs (FIG. 3), the AhR-mediated effect that we noted allowed us to culture cells for extended periods of time (>120 days). […]

Data set [4] relates to iPSC-derived MEPs. Description: Live versus dead cell FACS (propidium iodide vs. Hoechst) of MEPs. The note with it: pre-treated for 24 hours with 5 μM CH223191 before FICZ. As to the method: as §1, §2
In order to determine whether FICZ-mediated transactivation of the AhR receptor was responsible for the exponential expansion of iPSC-derived MEPs, the previously described Hoecsht/Propidium Iodide apoptosis assay was performed using the known AhR inhibitor CH223191. As previously shown in FIG. 3, fewer cells stained with propidium iodide after FICZ treatment (e.g., 15.5% vs. 8.09%) (FIG. 5E). […] The efficacy of the CH223191 was confirmed by its ability to block CY1^31B1 induction as assayed by qRT-PCR (FIG. 5F).

The test system of data set [5] is AhR. Briefly: Lentiviral AhR reporter (MMTV-DRE dsRed / luciferase) in MEPs. The note with it: day 30 MEPs, 0.2 μM FICZ plus 5 μM CH223191.
Data set [6] concerns iPSC-derived MEPs. Description: Growth / expansion of MEP cultures (manual counts, trypan blue exclusion). As to the method: Plots were gated first in FSC vs. SSC and then from that population for PI ‘ and PE Hoechst’. […] (B) Representative phase contrast images of MEP population+FICZ. (C) Growth curve of day 15 MEPs+/−[…] FICZ. Cells were counted manually using trypan blue exclusion. Graphical data and the associated statistics are the result of three independent experiments per group.
High passage iPSCs were plated onto matrigel coated 6-well plates in iPSC media conditioned on iMEFs for 24 hours and supplemented with 2 ng/ml Rho Kinase Inhibitor and 20 ng/ml bFGF. After two days, iPSC media was replaced with Mesoderm DO-1 media: RPMI (Invitrogen A1049101) supplemented with 5 ng/mlhBMP-4 (R&D 314-BP-010), 50 ng/ml hVEGF (R&D 293-VE-010), 25 ng/mlhWnt3a (R&D 287-TC-500) and 10% KOSR. At Day 2, Mesoderm DO-1 media was replaced with Mesoderm D2 media: RPMI supplemented with 5 ng/ml hBMP-4, 50 ng/mlhVEGF, 20 ng/ml bFGF and 10% KOSR. Mesoderm D3 media consisted of the following: StemPro 34 (Invitrogen 10639011), 5 ng/ml hBMP-4, 50 ng/mlhVEGF, and 20 ng/ml bFGF. Mesoderm media for days 4 and 5 consisted of: StemPro 34, 15 ng/mlhVEGF, and 5 ng/ml bFGF. Day 6 mesoderm media: 74% IMDM (Invitrogen 12330061), 24% Hams F12 (Mediatech 10-080-CV), 1% B27 supplement (Invitrogen 12587-010), 0.5% N2-supplement (Invitrogen 17502-048), 0.5% BSA (Sigma A3059), 50 ng/ml hVEGF, 100 ng/mlbFGF, 100 ng/ml hSCF (R&D 255-SC-010), 25 ng/ml hFlt3 Ligand (R&D 308-FKN-005). Day 7 media: 74% IMDM, 24% Hams F12, 1% B27 supplement, 0.5% N2-supplement, 0.5% BSA, 50 ng/ml hVEGF, 100 ng/ml bFGF, 100 ng/ml hSCF, 25 ng/ml hFlt3 Ligand, 50 ng/ml hTPO (Genentech G140BT), 10 ng/ml IL-6 (R&D 206-IL-010), 0.5 U/ml hEPOgen and 0.2 uM 6-formylindolo[3,2-b]carbazole (FICZ) (Santa Cruz SC300019). After Day 7, 0.5 ml of Day 7 media was added to the culture daily without aspirating the media from the previous day. All base media mixes included 2 mM L-Glutamine (Invitrogen 25030081), 4×10^-4M Monothioglycerol (Sigma M1753), 100 ug/ml Primocin, and 50 ug/ml Ascorbic Acid. Cells in suspension were collected and assayed at Days 10-13 or split for long-term culture.
as §1

`O=c1cc(-c2ccccc2)oc2ccc3ccccc3c12` [(3-NF, P-naphtoflavone]: the “responsiveness to AhR agonist (CYP1B1 RT-PCR)” value in data set [1] is listed as “responsive”; in data set [2] (MEP, normalized to GAPDH), “responsive”.
For the molecule `Cc1ccccc1N=Nc1ccc(NC(=O)c2ccnn2C)c(C)c1` [CH223191, 2-methyl-2H-pyrazole-3-carboxylic acid (2-methyl-4-o-tolylazo-phenyl)-amide], in data set [3], the “CD41+ megakaryocyte-lineage cells” value is recorded as “small but defined population”. Moreover, the “percentage of PI+ cells, vehicle versus FICZ-treated cultures” value in data set [4] is reported as “approximately the same”. In addition, the “CYP1B1 induction by FICZ” value in data set [2] (MEPs pretreated with CH223191 at D6, FICZ at D7) is “block”. The DsRed reporter expression result in data set [5] is “significant decrease”. Besides, the “expansion of MEPs” value in data set [6] (2.5 μM CH223191 pre-treatment before addition of FICZ) is on record as “still capable of expansion”; in data set [6] (5 μM CH223191 pre-treatment + FICZ), “No significant expansion”.
Turning to `Clc1cc2c(cc1Cl)Oc1cc(Cl)c(Cl)cc1O2` [TCDD, 2,3,7,8-tetrachlorodibenzo(p)dioxin], in data set [1] (iPSC treated for 4 days, normalized to GAPDH), the “responsiveness to AhR agonist (CYP1B1 RT-PCR)” value was “responsive”.

Source of the values: patent publication US12173320B2, “Production of red blood cells and platelets from stem cells” (BOSTON MEDICAL CENTER CORPORATION, priority 2012, dated 2024).
